Assays:
Type in all cases: cell-based
[1] = tested on: U‐251 (human glioblastoma cell line); experiment: SRB cytotoxicity, U-251 cells; settings: read-out: IC50 U‐251, non-linear regression
[2] = tested on: MCF‐7 (human mammary adenocarcinoma); experiment: SRB cytotoxicity, MCF-7 cells; settings: read-out: IC50 MCF‐7, non-linear regression
[3] = tested on: SK‐LU‐1 (human lung adenocarcinoma); experiment: SRB cytotoxicity, SK-LU-1 cells; settings: read-out: IC50 SK‐LU‐1, non-linear regression

Work on curcumin yielded an IC50 [1] of 20.5 ± 1.7 µM, an IC50 [2] of 18.4 ± 0.9 µM and an IC50 [3] of 12.9 ± 0.7 µM.
